Experimental data reported in the NIST ThermoML archive (doi:10.1016/j.jct.2017.08.004).

Experiment: molar heat capacity at constant pressure
Conditions: 101.33 kPa

OC[C@H](O)C(O)[C@@H](O)CO [L-(-)-arabitol]
molar heat capacity at constant pressure [J/K/mol]
Conditions	Small sample (50 mg) DSC	relaxation calorimetry
244.15 K, Crystal	168.75	–
245.15 K, Crystal	169.35	–
246.15 K, Crystal	169.88	–
247.15 K, Crystal	170.55	–
248.15 K, Crystal	171.06	–
249.15 K, Crystal	171.85	–
250 K, Crystal	–	173.24
250.15 K, Crystal	172.59	–
251.15 K, Crystal	173.21	–
251.96 K, Crystal	–	174.6
252.15 K, Crystal	173.86	–
253.15 K, Crystal	174.57	–
254.15 K, Crystal	175.18	–
255.15 K, Crystal	176.03	–
256.15 K, Crystal	176.9	–
257.15 K, Crystal	177.61	–
258.15 K, Crystal	178.4	–
259.15 K, Crystal	179.26	–
260 K, Crystal	–	179.82
260.15 K, Crystal	180.04	–
261.15 K, Crystal	180.97	–
262.07 K, Crystal	–	180.97
262.15 K, Crystal	181.78	–
263.15 K, Crystal	182.59	–
264.15 K, Crystal	183.52	–
265.15 K, Crystal	184.23	–
266.15 K, Crystal	184.83	–
267.15 K, Crystal	185.69	–
268.15 K, Crystal	186.57	–
269.15 K, Crystal	187.58	–
270 K, Crystal	–	186.56
270.15 K, Crystal	188.37	–
271.15 K, Crystal	189.06	–
272.13 K, Crystal	–	188.16
272.15 K, Crystal	189.78	–
273.15 K, Crystal	190.61	188.71
274.15 K, Crystal	191.19	–
275.15 K, Crystal	191.83	–
276.15 K, Crystal	192.48	–
277.15 K, Crystal	193.16	–
278.15 K, Crystal	193.84	–
279.15 K, Crystal	194.6	–
280 K, Crystal	–	193.46
280.15 K, Crystal	195.16	–
281.15 K, Crystal	195.85	–
282.15 K, Crystal	196.47	–
282.16 K, Crystal	–	194.74
283.15 K, Crystal	197.03	–
284.15 K, Crystal	197.67	–
285.15 K, Crystal	198.35	–
286.15 K, Crystal	198.9	–
287.15 K, Crystal	199.37	–
288.15 K, Crystal	200.05	–
289.15 K, Crystal	200.75	–
290 K, Crystal	–	200.53
290.15 K, Crystal	201.49	–
291.15 K, Crystal	202.11	–
292.15 K, Crystal	202.64	–
292.27 K, Crystal	–	201.73
293.15 K, Crystal	203.3	–
294.15 K, Crystal	203.94	–
295.15 K, Crystal	204.77	–
296.15 K, Crystal	205.37	–
297.15 K, Crystal	206.12	–
298.15 K, Crystal	206.77	206.44
299.15 K, Crystal	207.42	–
300 K, Crystal	–	207.8
300.15 K, Crystal	208.27	–
301.15 K, Crystal	209.11	–
302.15 K, Crystal	209.85	–
302.3 K, Crystal	–	209.95
303.15 K, Crystal	210.71	–
304.15 K, Crystal	211.4	–
305 K, Crystal	212.36	–
305.15 K, Crystal	212.38	–
306.15 K, Crystal	213.15	–
307.15 K, Crystal	214.11	–
308.15 K, Crystal	215.16	–
309.15 K, Crystal	216.11	–
310 K, Crystal	217.12	–
310.15 K, Crystal	217.05	–
311.15 K, Crystal	218.22	–
312.15 K, Crystal	219.18	–
313.15 K, Crystal	220.1	–
314.15 K, Crystal	221.04	–
315 K, Crystal	221.96	–
315.15 K, Crystal	222.13	–
316.15 K, Crystal	223.18	–
317.15 K, Crystal	224.21	–
318.15 K, Crystal	225.16	–
319.15 K, Crystal	226.14	–
320 K, Crystal	226.85	–
320.15 K, Crystal	227.12	–
321.15 K, Crystal	228.27	–
322.15 K, Crystal	229.22	–
323.15 K, Crystal	230.47	–
324.15 K, Crystal	231.33	–
325 K, Crystal	231.9	–
325.15 K, Crystal	232.46	–
326.15 K, Crystal	233.49	–
327.15 K, Crystal	234.58	–
328.15 K, Crystal	235.6	–
329.15 K, Crystal	236.61	–
330 K, Crystal	237.4	–
330.15 K, Crystal	237.74	–
331.15 K, Crystal	238.74	–
332.15 K, Crystal	239.92	–
333.15 K, Crystal	241.19	–
335 K, Crystal	243.8	–
340 K, Crystal	251.69	–
345 K, Crystal	261.85	–
387.05 K, Liquid	440.32	–
387.15 K, Liquid	440.19	–
388.15 K, Liquid	440.32	–
389.15 K, Liquid	440.39	–
390 K, Liquid	440.74	–
390.15 K, Liquid	440.65	–
391.15 K, Liquid	440.67	–
392.15 K, Liquid	440.92	–
393.15 K, Liquid	441.37	–
394.15 K, Liquid	441.72	–
395 K, Liquid	442.06	–
395.15 K, Liquid	441.9	–
396.15 K, Liquid	442.46	–
397.15 K, Liquid	443.18	–
398.15 K, Liquid	443.38	–
399.15 K, Liquid	443.7	–
400 K, Liquid	443.76	–
400.15 K, Liquid	444.18	–
401.15 K, Liquid	444.55	–
402.15 K, Liquid	444.8	–
403.15 K, Liquid	445.3	–
404.15 K, Liquid	445.48	–
405 K, Liquid	445.85	–
405.15 K, Liquid	445.82	–
406.15 K, Liquid	446.12	–
407.15 K, Liquid	446.57	–
408.15 K, Liquid	447.22	–
409.15 K, Liquid	447.57	–
410 K, Liquid	448.32	–
410.15 K, Liquid	448.06	–
411.15 K, Liquid	448.75	–
412.15 K, Liquid	449.48	–
413.15 K, Liquid	450.17	–
414.15 K, Liquid	450.82	–
415 K, Liquid	451.18	–
415.15 K, Liquid	451.25	–
416.15 K, Liquid	451.74	–
417.15 K, Liquid	452.58	–
418.15 K, Liquid	453.6	–
